We go through two molecules from patent US20210322327A1, “EXTRACELLULAR VESICLES COMPRISING STING-AGONIST” (Codiak BioSciences, Inc., priority 2018, published 2021).

Series [1] can be described thus: Tumor pharmacokinetics after intratumoral injection. Type of series: in vivo, C57BL/6 mice. The following applies: B16F10 tumor. The method, then:
To examine the tumor pharmacokinetics of STING agonist, C57BL/6 mice were inoculated subcutaneously with 1×10^6 B16F10 murine melanoma cells (n=3 mice per group and time). Eight days post-inoculation, the tumors were injected intratumorally with 30 μg of free 3-3 cAIMPdFSH, 0.3 μg of free 3-3 cAIMPdFSH, or 0.3 μg 3-3 cAIMPdFSH loaded in PTGFRN-overexpressing exosomes. Five minutes, thirty minutes, two hours, 6 hours, 24 hours, and 48 hours after injection, tumors were excised and lysed with 6 volume of plasma. The concentration of 3-3 cAIMPdFSH was measured by LC-MS/MS, as described in Example 1. Free 3-3 cAIMPdFSH in both 30 μg and 0.3 μg was disappeared quickly from tumor, having half-life of around 10 minutes.

Series [2] relates to B16F10 murine melanoma cells. The experiment in a line: Dual flank B16F10 model, injected and contralateral tumors. The format is in vivo, C57BL/6 mice. The source says:
In addition, activation of the STING pathway induces the upregulation of immune pathway checkpoints, which subsequently reduce T-cell-mediated cell killing, and thus moderate the effects of STING pathway agonism as a therapeutic rationale (Cell Rep. 2015 May 19; 11(7):1018-30). To test both hypotheses, C57BL/6 mice were inoculated subcutaneously with 1×10^6 and 5×10^5 B16F10 murine melanoma cells into right and left flank of mice, respectively (n=5 mice per group). Seven, ten, and thirteen days post-inoculation, the tumor at right flank were injected intratumorally with exosomes, 20 μg of free 3-3 cAIMPdFSH, 0.1 μg of free 3-3 cAIMPdFSH, or 0.1 μg 3-3 cAIMPdFSH loaded in PTGFRN-overexpressing exosomes, with a control antibody (α-IgG; 10 mg/kg; BioLegend, Catalog #400559, Clone RTK3758) or an antagonistic antibody against PD-1 (a PD-1; 10 mg/kg; BioLegend, Catalog #114111, Clone RMPI-14). Antibodies were injected intraperitoneally. Tumor volumes were measured daily until day 21, and animals were sacrificed when tumor volume reached 2000 mm^3.

Another series has as its system A20 lymphoma cells. The series can be described thus: CIVO intratumoral microinjection, IFNβ mRNA by in situ hybridization. The format is in vivo, BALB/cAnNHsd mice. The following applies: high dose free (printed 2 g), four hours post-injection. The method, then:
All experiments in mice were approved by IACUC Board of Presage Biosciences, Seattle, Wash. (Protocol number PR-001) and were performed at Presage in accordance with relevant guidelines and regulations. All relevant procedures were performed under anesthesia and all efforts were made to minimize pain and suffering. Female BALB/cAnNHsd mice (Envigo) with an average weight of 18 gm were used for experiments at 5-7 weeks of age. For generating A20 allografts, mice were inoculated with 1 million A20 cells in 100 μl inoculation volume.
CIVO intra-tumoral microinjections were performed as described in Klinghoffer et al. (2016) Science Translational Medicine. Briefly, mice (n=6 per time point, 4 and 24 hours) were enrolled in microinjection studies when implanted tumors reached the following approximate dimensions: 14 mm (length), 10 mm (width) and 7 mm (depth). […]
Images of every cell from each tissue section stained were captured by digital, automated, high-resolution whole-tissue scanning (3D Histech Panoramic 250 Flash). Tumor responses were quantified from image files from each tissue section using Presage's custom CIVO Analyzer image analysis platform. […] In order to mitigate the influence of pre-existing necrosis on biomarker measurements, injection sites that fall within largely acellular tumor regions are excluded prior to quantitative analysis. […]

Regarding `Nc1ncnc2c1ncn2[C@@H]1O[C@@H]2COP(=O)(S)O[C@H]3[C@@H](F)[C@H](n4cnc5c(=O)[nH]cnc54)O[C@@H]3COP(O)(=S)O[C@H]2[C@H]1F` (stereo partly shown) [3-3 cAIMPdFSH, 3′3′-cAIMPdFSH], the half-life in tumor entry in series [1] (0.3 μg free) and in series [1] (30 μg free) was “around 10 minutes” in each case. In addition, the injected tumor growth entry is “moderately potentiated” in series [2] (0.1 μg free + IgG or Anti-PD1) and “Almost completely eliminated” in series [2] (20 μg free, regardless of anti-PD1). For the same molecule, the “contralateral (not injected) tumor” value in series [2] (20 μg free) was “significant tumor reduction”. Also, the “contralateral tumor reduction with anti-PD1” value in series [2] (20 μg free + anti-PD-1 10 mg/kg IP) is on record as “more strengthened with anti-PD1 combination”.
As to `Nc1ncnc2c1ncn2[C@@H]1O[C@@H]2COP(O)(=S)O[C@@H]3C(O)[C@@H](COP(O)(=S)O[C@H]2[C@H]1O)O[C@H]3n1cnc2c(N)ncnc21` (stereo partly shown) [ML RR-S2 CDA], in the series with A20 lymphoma cells, the “IFNβ mRNA levels” value was “comparable between the high dose STING agonist and the PTGFRN O/E EXOSTING™ groups”.
